Species: Rattus norvegicus
Assay: DrugMatrix - Regimen: Daily Repeat
Type: toxicity, organism-based, Sprague-Dawley
Parameters: regimen Daily Repeat, gender Male, age 6-8 weeks
Details: in vivo, sc, […], route mini-PUMP - SUBCUTANEOUS, dose 0.44 mg/Kg, dose level High, vehicle 100 % SALINE; for ABSOLUTE BASOPHIL / ABSOLUTE EOSINOPHIL / ABSOLUTE LYMPHOCYTE / ABSOLUTE MONOCYTE / ABSOLUTE SEGMENTED NEUTROPHIL / BASOPHIL / EOSINOPHIL / ERYTHROCYTE COUNT / HEMATOCRIT / HEMOGLOBIN / LEUKOCYTE COUNT / LYMPHOCYTE / MEAN CORPUSCULAR HEMOGLOBIN / MEAN CORPUSCULAR HEMOGLOBIN CONCENTRATION / MEAN CORPUSCULAR VOLUME / MONOCYTE / NEUTROPHIL / NUCLEATED RED BLOOD CELLS / PLATELET COUNT: tissue Blood; for ALANINE AMINOTRANSFERASE / ALBUMIN / ALKALINE PHOSPHATASE / ASPARTATE AMINOTRANSFERASE / BLOOD UREA NITROGEN / CARBON DIOXIDE / CHLORIDE / CHOLESTEROL / CREATININE / GLUCOSE / LACTATE DEHYDROGENASE / LIPASE / PHOSPHORUS / POTASSIUM / SODIUM / TOTAL BILIRUBIN / TOTAL PROTEIN / URIC ACID: tissue Plasma

With `CNC[C@H](O)c1cccc(O)c1` [PHENYLEPHRINE] the “ABSOLUTE BASOPHIL” value (72 h, time 3 day) was 0 CELLS/uL, the “ABSOLUTE EOSINOPHIL” value (72 h, time 3 day) was 55.67 CELLS/uL and the “ABSOLUTE LYMPHOCYTE” value (72 h, time 3 day) was 14419.33 CELLS/uL. The “ABSOLUTE MONOCYTE” value (72 h, time 3 day) was 594.67 CELLS/uL, the “ABSOLUTE SEGMENTED NEUTROPHIL” value (72 h, time 3 day) was 1063.67 CELLS/uL and the BASOPHIL (72 h, time 3 day) was 0%. The EOSINOPHIL (72 h, time 3 day) was 0.33%, the “ERYTHROCYTE COUNT” value (72 h, time 3 day) was 5.8 x10E6/uL and the HEMATOCRIT (72 h, time 3 day) was 34.93%. The HEMOGLOBIN (72 h, time 3 day) was 13 G/DL, the “LEUKOCYTE COUNT” value (72 h, time 3 day) was 16.13 x10E3/uL and the LYMPHOCYTE (72 h, time 3 day) was 89.33%. The “MEAN CORPUSCULAR HEMOGLOBIN” value (72 h, time 3 day) was 22.43 pg, the “MEAN CORPUSCULAR HEMOGLOBIN CONCENTRATION” value (72 h, time 3 day) was 37.23 G/DL and the “MEAN CORPUSCULAR VOLUME” value (72 h, time 3 day) was 60.33 fL. The MONOCYTE (72 h, time 3 day) was 3.67%, the NEUTROPHIL (72 h, time 3 day) was 6.67% and the “NUCLEATED RED BLOOD CELLS” value (72 h, time 3 day) was 0.33 /100WBC. The “PLATELET COUNT” value (72 h, time 3 day) was 1250 x10E3/uL, the “ALANINE AMINOTRANSFERASE” value (72 h, time 3 day) was 43.33 u/L and the ALBUMIN (72 h, time 3 day) was 3.87 G/DL. The “ALKALINE PHOSPHATASE” value (72 h, time 3 day) was 289 u/L, the “ASPARTATE AMINOTRANSFERASE” value (72 h, time 3 day) was 78.67 u/L and the “BLOOD UREA NITROGEN” value (72 h, time 3 day) was 16 mg/dL. For the same molecule, the “CARBON DIOXIDE” value (72 h, time 3 day) was 25.67 mmol/L, the CHLORIDE (72 h, time 3 day) was 102.67 MEQ/L and the CHOLESTEROL (72 h, time 3 day) was 76 mg/dL. For the same molecule, the CREATININE (72 h, time 3 day) was 0.16 mg/dL, the GLUCOSE (72 h, time 3 day) was 149 mg/dL and the “LACTATE DEHYDROGENASE” value (72 h, time 3 day) was 363 u/L. It also gave an LIPASE (72 h, time 3 day) of 9.33 u/L, a PHOSPHORUS (72 h, time 3 day) of 13.17 mg/dL and a POTASSIUM (72 h, time 3 day) of 6.76 MEQ/L. The SODIUM (72 h, time 3 day) was 148.13 MEQ/L, the “TOTAL BILIRUBIN” value (72 h, time 3 day) was 0.17 mg/dL and the “TOTAL PROTEIN” value (72 h, time 3 day) was 6.13 G/DL. For the same molecule, the “URIC ACID” value (72 h, time 3 day) was 1.83 mg/dL, the “ABSOLUTE BASOPHIL” value (120 h, time 5 day) was 0 CELLS/uL and the “ABSOLUTE EOSINOPHIL” value (120 h, time 5 day) was 45.67 CELLS/uL. For the same molecule, the “ABSOLUTE LYMPHOCYTE” value (120 h, time 5 day) was 14706.67 CELLS/uL, the “ABSOLUTE MONOCYTE” value (120 h, time 5 day) was 166.33 CELLS/uL and the “ABSOLUTE SEGMENTED NEUTROPHIL” value (120 h, time 5 day) was 1714.67 CELLS/uL. For the same molecule, the BASOPHIL (120 h, time 5 day) was 0%, the EOSINOPHIL (120 h, time 5 day) was 0.33% and the “ERYTHROCYTE COUNT” value (120 h, time 5 day) was 6.03 x10E6/uL. The HEMATOCRIT (120 h, time 5 day) was 35.63%, the HEMOGLOBIN (120 h, time 5 day) was 13.2 G/DL and the “LEUKOCYTE COUNT” value (120 h, time 5 day) was 16.63 x10E3/uL. For the same molecule, the LYMPHOCYTE (120 h, time 5 day) was 88.33%, the “MEAN CORPUSCULAR HEMOGLOBIN” value (120 h, time 5 day) was 21.9 pg and the “MEAN CORPUSCULAR HEMOGLOBIN CONCENTRATION” value (120 h, time 5 day) was 37.03 G/DL. The “MEAN CORPUSCULAR VOLUME” value (120 h, time 5 day) was 59.07 fL, the MONOCYTE (120 h, time 5 day) was 1% and the NEUTROPHIL (120 h, time 5 day) was 10.33%. For the same molecule, the “NUCLEATED RED BLOOD CELLS” value (120 h, time 5 day) was 0 /100WBC, the “PLATELET COUNT” value (120 h, time 5 day) was 1498.33 x10E3/uL and the “ALANINE AMINOTRANSFERASE” value (120 h, time 5 day) was 48.33 u/L. The ALBUMIN (120 h, time 5 day) was 3.97 G/DL, the “ALKALINE PHOSPHATASE” value (120 h, time 5 day) was 321.67 u/L and the “ASPARTATE AMINOTRANSFERASE” value (120 h, time 5 day) was 89.67 u/L. The “BLOOD UREA NITROGEN” value (120 h, time 5 day) was 14 mg/dL, the “CARBON DIOXIDE” value (120 h, time 5 day) was 27.67 mmol/L and the CHLORIDE (120 h, time 5 day) was 103.33 MEQ/L. It also gave a CHOLESTEROL (120 h, time 5 day) of 71 mg/dL, a CREATININE (120 h, time 5 day) of 0.15 mg/dL and a GLUCOSE (120 h, time 5 day) of 166 mg/dL. For the same molecule, the “LACTATE DEHYDROGENASE” value (120 h, time 5 day) was 145.33 u/L, the LIPASE (120 h, time 5 day) was 9 u/L and the PHOSPHORUS (120 h, time 5 day) was 12.6 mg/dL. For the same molecule, the POTASSIUM (120 h, time 5 day) was 6.15 MEQ/L, the SODIUM (120 h, time 5 day) was 148.6 MEQ/L and the “TOTAL BILIRUBIN” value (120 h, time 5 day) was 0.17 mg/dL. For the same molecule, the “TOTAL PROTEIN” value (120 h, time 5 day) was 6.1 G/DL, the “URIC ACID” value (120 h, time 5 day) was 1.87 mg/dL and the “ABSOLUTE BASOPHIL” value (time 14 day) was 0 CELLS/uL. For the same molecule, the “ABSOLUTE EOSINOPHIL” value (time 14 day) was 155 CELLS/uL, the “ABSOLUTE LYMPHOCYTE” value (time 14 day) was 14503.4 CELLS/uL and the “ABSOLUTE MONOCYTE” value (time 14 day) was 573 CELLS/uL. The “ABSOLUTE SEGMENTED NEUTROPHIL” value (time 14 day) was 2768.6 CELLS/uL, the BASOPHIL (time 14 day) was 0% and the EOSINOPHIL (time 14 day) was 0.8%. The “ERYTHROCYTE COUNT” value (time 14 day) was 6.23 x10E6/uL, the HEMATOCRIT (time 14 day) was 37.14% and the HEMOGLOBIN (time 14 day) was 13.54 G/DL. For the same molecule, the “LEUKOCYTE COUNT” value (time 14 day) was 18 x10E3/uL, the LYMPHOCYTE (time 14 day) was 80.8% and the “MEAN CORPUSCULAR HEMOGLOBIN” value (time 14 day) was 21.72 pg. The “MEAN CORPUSCULAR HEMOGLOBIN CONCENTRATION” value (time 14 day) was 36.46 G/DL, the “MEAN CORPUSCULAR VOLUME” value (time 14 day) was 59.54 fL and the MONOCYTE (time 14 day) was 3.2%. For the same molecule, the NEUTROPHIL (time 14 day) was 15.2%, the “NUCLEATED RED BLOOD CELLS” value (time 14 day) was 0 /100WBC and the “PLATELET COUNT” value (time 14 day) was 1175 x10E3/uL. For the same molecule, the “ALANINE AMINOTRANSFERASE” value (time 14 day) was 43.6 u/L, the ALBUMIN (time 14 day) was 4.1 G/DL and the “ALKALINE PHOSPHATASE” value (time 14 day) was 276.2 u/L. The “ASPARTATE AMINOTRANSFERASE” value (time 14 day) was 80 u/L, the “BLOOD UREA NITROGEN” value (time 14 day) was 19.6 mg/dL and the “CARBON DIOXIDE” value (time 14 day) was 29.4 mmol/L. It also gave a CHLORIDE (time 14 day) of 100.6 MEQ/L, a CHOLESTEROL (time 14 day) of 69.8 mg/dL and a CREATININE (time 14 day) of 0.23 mg/dL. The GLUCOSE (time 14 day) was 173.8 mg/dL, the “LACTATE DEHYDROGENASE” value (time 14 day) was 166.4 u/L and the LIPASE (time 14 day) was 8.6 u/L. For the same molecule, the PHOSPHORUS (time 14 day) was 13.24 mg/dL, the POTASSIUM (time 14 day) was 7.17 MEQ/L and the SODIUM (time 14 day) was 144.9 MEQ/L. The “TOTAL BILIRUBIN” value (time 14 day) was 0.18 mg/dL, the “TOTAL PROTEIN” value (time 14 day) was 6.42 G/DL and the “URIC ACID” value (time 14 day) was 2.54 mg/dL.

Reference: ChEMBL document CHEMBL3885881, “DrugMatrix”
